Source: patent US12029738B2, “Antiproliferative compounds and methods of use thereof” (Celgene Corporation, priority 2017, dated 2024)
Values joined by “and” are separate entries in the source; they are usually repeats but may differ in a detail not shown here. Identical values can stand only once. Like-named read-outs stand apart in the source and are kept apart here.

Key:
α1A adrenergic receptor = biological target: T1, α1A adrenergic receptor (Homo sapiens, UniProt P35348); assay: α1A adrenergic receptor antagonist assay (calcium mobilization, CHO cells); assay type: cell-based
T1 construct: host or cells: CHO cells
T1 sequence (P35348 1-466): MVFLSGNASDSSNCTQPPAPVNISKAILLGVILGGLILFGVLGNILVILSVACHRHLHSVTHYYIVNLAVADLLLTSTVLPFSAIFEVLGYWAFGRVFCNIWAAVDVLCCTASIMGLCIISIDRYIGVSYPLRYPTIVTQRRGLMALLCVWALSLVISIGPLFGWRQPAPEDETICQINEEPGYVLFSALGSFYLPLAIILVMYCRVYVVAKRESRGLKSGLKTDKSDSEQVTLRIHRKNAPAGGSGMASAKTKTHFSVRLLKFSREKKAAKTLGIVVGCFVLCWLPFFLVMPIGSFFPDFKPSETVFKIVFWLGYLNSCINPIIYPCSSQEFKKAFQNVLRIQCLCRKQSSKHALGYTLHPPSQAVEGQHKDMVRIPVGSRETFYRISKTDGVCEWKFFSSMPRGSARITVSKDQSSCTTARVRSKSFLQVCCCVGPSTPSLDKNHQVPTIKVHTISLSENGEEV
Experimental: (§1) α1 Adrenergic and Dopamine D2 Receptors. Methods: Binding and functional assays for α1 adrenergic and dopamine D2 receptors were performed by Eurofins Cerep according to their methods.
(§2) Antagonist activity. The antagonistic effects of test compounds on the α1A and α1B adrenergic receptors were measured using human receptor-transfected Chinese hamster ovary (CHO) cells. Antagonist activity was determined by measuring compound effect on agonist (epinephrine)-induced calcium mobilization in the α1A receptor assay or cAMP levels in the α1B receptor assay. In these experiments, CHO cells were incubated in duplicate at room temperature with test article and epinephrine at 3 nM in the α1A receptor assays or at 3000 nM in the α1B receptor assay. Compound A was tested in the α1A receptor assay at 0.01-30 μM. […] Compound 1 and Compound 2 were assayed at 0.03 to 30 μM in the α1A receptor assay and 0.03 to 100 μM in the α1B receptor assay. In the α1A receptor assay, cytosolic calcium levels were measured fluorometrically using the fluorescent probe, Fluo4 Direct. Intracellular cAMP levels in the α1B adrenergic receptor assay were measured by homogenous time-resolved fluorescence (HTRF). The antagonism IC50 was defined as the concentration causing a half-maximum inhibition of control agonist response.

[1] = test system: non-selective α1 adrenergic receptor; assay: α1 adrenergic receptor radioligand binding ([3H]prazosin); settings: rat cerebral cortex; for Adrenergic α1 (non-selective) % Inhibition (10 μM): 0.25 nM [3H]prazosin; for IC50: [3H]prazosin
Experimental: as §1
α1 Adrenergic Receptor. Binding at 10 μM. The binding assay evaluated the affinity of test article for the non-selective α1 adrenergic receptor in rat cerebral cortex. Membrane homogenates of cerebral cortex were incubated in duplicate for 60 minutes at room temperature with 0.25 nM [^3H]prazosin in the absence or presence of test articles at 10 μM. After the incubation period, samples were filtered through glass fiber filters, the filters dried and then counted for radioactivity using a scintillation counter. Results are expressed as mean percent inhibition of control radioligand binding.
Binding IC50. […] Compound A was tested at 0.01-30 μM. […] Compound 1 and Compound 2, the S-enantiomer of Compound 1, were assayed at 0.03-100 μM. Radioactivity was measured as described above. The IC50 was defined as the concentration causing a half-maximum inhibition of control specific binding.

dopamine D2S receptor = biological target: T2, dopamine D2S receptor (Homo sapiens, UniProt P14416); assay: Dopamine D2S receptor radioligand binding (HEK-293); settings: for inhibition at 10 µM: read-out: Dopamine D2S % Inhibition (10 μM)
T2 construct: host or cells: HEK-293 cells (membrane homogenates)
T2 sequence (P14416 1-414 isoform P14416-2): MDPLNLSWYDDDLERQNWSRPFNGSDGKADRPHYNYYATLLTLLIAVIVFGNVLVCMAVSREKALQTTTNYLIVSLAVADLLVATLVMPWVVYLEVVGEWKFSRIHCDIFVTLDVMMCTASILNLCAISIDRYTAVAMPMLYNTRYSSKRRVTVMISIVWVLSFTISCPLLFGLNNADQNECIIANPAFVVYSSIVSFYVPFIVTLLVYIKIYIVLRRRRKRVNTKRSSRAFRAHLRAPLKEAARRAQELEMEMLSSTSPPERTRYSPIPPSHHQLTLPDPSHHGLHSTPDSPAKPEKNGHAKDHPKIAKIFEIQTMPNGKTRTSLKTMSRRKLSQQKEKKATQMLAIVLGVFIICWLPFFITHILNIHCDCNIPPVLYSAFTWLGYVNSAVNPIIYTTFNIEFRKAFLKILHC
Experimental: as §1
(§3) Dopamine D2 Receptor. Binding at 10 μM. The binding assay evaluated the affinity of test articles for the dopamine D2 receptor in transfected human embryonic kidney (HEK)-293 cells. For determining the binding in the D2S receptor assay, test article was incubated with 0.3 nM [^3H] methylspiperone or 1 nM [^3H] 7-hydroxy-2-N,N-dipropylaminotetralin (7-OH-DPAT). [3H] Methylspiperone at 0.3 nM also was used as control ligand in the D2L binding assay. Cell membrane homogenates were incubated in duplicate at room temperature for 60 minutes with ligand in the absence or presence of test articles at 10 μM. After the incubation period, samples were filtered through glass fiber filters, the filters dried and then counted for radioactivity using a scintillation counter. Results are expressed as mean percent inhibition of control radioligand binding.
(§4) Binding IC50. To determine the binding IC50 in the D2 receptor assays, HEK-293 were tested as described above but with varying concentrations of test article. Compound A was tested at 0.01-30 μM in the D2S radioligand binding assay. […] Compound 1 was assayed at 0.03-100 μM in both the D2S and D2L assays, while Compound 2 was tested at 0.03-100 μM in the D2S assay and 0.01-100 μM in the D2L assays. The IC50 was defined as the concentration causing a half-maximum inhibition of control specific binding.

dopamine D2L receptor = biological target: T3, dopamine D2L receptor (Homo sapiens, UniProt P14416); assay: Dopamine D2L receptor radioligand binding (HEK-293)
T3 construct: host or cells: HEK-293 cells (membrane homogenates)
T3 sequence (P14416 whole entry): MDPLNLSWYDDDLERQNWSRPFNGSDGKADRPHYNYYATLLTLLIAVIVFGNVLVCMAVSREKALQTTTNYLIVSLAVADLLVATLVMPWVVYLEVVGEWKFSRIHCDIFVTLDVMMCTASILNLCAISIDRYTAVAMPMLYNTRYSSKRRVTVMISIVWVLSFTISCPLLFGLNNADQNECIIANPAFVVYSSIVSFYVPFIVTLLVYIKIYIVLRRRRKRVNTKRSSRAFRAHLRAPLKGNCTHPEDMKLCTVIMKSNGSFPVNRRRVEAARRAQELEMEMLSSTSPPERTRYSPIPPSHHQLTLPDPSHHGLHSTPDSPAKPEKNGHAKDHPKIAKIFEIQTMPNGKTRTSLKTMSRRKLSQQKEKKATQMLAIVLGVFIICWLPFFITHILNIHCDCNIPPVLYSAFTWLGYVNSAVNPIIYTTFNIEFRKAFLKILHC
Experimental: as §1, §3, §4

α1B adrenergic receptor = biological target: T4, α1B adrenergic receptor (Homo sapiens, UniProt P35368); assay: α1B adrenergic receptor antagonist assay (cAMP, CHO cells); assay type: cell-based
T4 construct: host or cells: CHO cells
T4 sequence (P35368 1-520): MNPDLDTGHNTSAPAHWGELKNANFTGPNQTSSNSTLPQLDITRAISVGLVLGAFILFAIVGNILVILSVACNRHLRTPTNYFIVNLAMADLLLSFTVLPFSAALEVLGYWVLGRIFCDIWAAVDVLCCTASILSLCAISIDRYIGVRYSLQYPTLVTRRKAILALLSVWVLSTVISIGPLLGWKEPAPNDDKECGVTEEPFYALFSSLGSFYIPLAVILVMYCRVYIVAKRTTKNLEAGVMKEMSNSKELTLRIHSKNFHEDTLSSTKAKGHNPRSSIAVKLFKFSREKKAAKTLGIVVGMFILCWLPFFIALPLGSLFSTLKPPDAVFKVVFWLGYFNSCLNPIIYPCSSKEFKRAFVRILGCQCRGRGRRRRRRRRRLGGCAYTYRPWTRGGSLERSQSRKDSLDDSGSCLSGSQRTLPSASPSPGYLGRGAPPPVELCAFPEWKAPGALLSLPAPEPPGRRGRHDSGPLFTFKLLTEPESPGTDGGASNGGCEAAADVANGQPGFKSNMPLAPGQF
Experimental: as §1, §2

N#Cc1ccc(N2CCN(Cc3ccc(COc4cccc5c4CN(C4CCC(=O)NC4=O)C5=O)cc3)CC2)c(F)c1 (racemic) [Compound 1, 4-(4-(4-(((2-(2,6-dioxopiperidin-3-yl)-1-oxoisoindolin-4-yl)oxy)methyl)benzyl)piperazin-1-yl)-3-fluorobenzonitrile]
IC50 (α1A adrenergic receptor): 980 nM
Adrenergic α1 (non-selective) % Inhibition (10 μM) [1]: 67%
IC50 [1]: 3900 nM
IC50 (dopamine D2S receptor): 7.4 µM
inhibition at 10 µM (dopamine D2S receptor): 55%
IC50 (dopamine D2L receptor): 2300 nM
inhibition at 10 µM (dopamine D2L receptor; read-out: D2L % Inhibition (10 μM)): 55%
IC50 (α1B adrenergic receptor): 6900 nM

O=C1CC[C@H](N2Cc3c(OCc4ccc(CN5CCN(c6ccc(F)cc6F)CC5)cc4)cccc3C2=O)C(=O)N1 [Compound B]
IC50 (α1A adrenergic receptor; epinephrine 3 nM, calcium mobilization, read-out: Antagonism IC50 α1A): 6.4 nM
Adrenergic α1 (non-selective) % Inhibition (10 μM) [1]: 98% and 100%
IC50 [1]: 24 nM
Dopamine D2S % Inhibition (10 μM) (dopamine D2S receptor; 10 μM): 99, % and 99^a %
D2L % Inhibition (10 μM) (dopamine D2L receptor; 10 μM): 103%
IC50 (dopamine D2L receptor; read-out: D2L Binding IC50): 84 nM
IC50 (α1B adrenergic receptor; epinephrine 3000 nM, cAMP, read-out: Antagonism IC50 α1B): 78 nM

N#Cc1ccc(N2CCN(Cc3ccc(COc4cccc5c4CN([C@H]4CCC(=O)NC4=O)C5=O)cc3)CC2)c(F)c1 [Compound 2, (S)-4-(4-(4-(((2-(2,6-dioxopiperidin-3-yl)-1-oxoisoindolin-4-yl)oxy)methyl)benzyl)piperazin-1-yl)-3-fluorobenzonitrile]
IC50 (α1A adrenergic receptor): 580 nM
Adrenergic α1 (non-selective) % Inhibition (10 μM) [1]: 62%
IC50 [1]: ~1300 nM
IC50 (dopamine D2S receptor): ~2 µM
inhibition at 10 µM (dopamine D2S receptor): 52%
IC50 (dopamine D2L receptor): ~3000 nM
IC50 (α1B adrenergic receptor): 2400 nM
